Results taken from patent US20110086063A1, “VACCINES FOR PREVENTION AND TREATMENT OF ADDICTION” (priority 2008, published 2011).
Where two headings read alike, the source gives them in different places.

How the values were obtained:
[1] = biological target: T1, dopamine transporters (DAT) (Macaca mulatta, UniProt Q7JHP9); conditions: rhesus monkeys, cited from earlier work
T1 construct: In rhesus monkeys, doses of 0.1 and 1.0 mg/kg cocaine occupy 53% and 87% of the DAT; host or cells: rhesus monkey brain, in vivo
T1 sequence (Q7JHP9 1-620): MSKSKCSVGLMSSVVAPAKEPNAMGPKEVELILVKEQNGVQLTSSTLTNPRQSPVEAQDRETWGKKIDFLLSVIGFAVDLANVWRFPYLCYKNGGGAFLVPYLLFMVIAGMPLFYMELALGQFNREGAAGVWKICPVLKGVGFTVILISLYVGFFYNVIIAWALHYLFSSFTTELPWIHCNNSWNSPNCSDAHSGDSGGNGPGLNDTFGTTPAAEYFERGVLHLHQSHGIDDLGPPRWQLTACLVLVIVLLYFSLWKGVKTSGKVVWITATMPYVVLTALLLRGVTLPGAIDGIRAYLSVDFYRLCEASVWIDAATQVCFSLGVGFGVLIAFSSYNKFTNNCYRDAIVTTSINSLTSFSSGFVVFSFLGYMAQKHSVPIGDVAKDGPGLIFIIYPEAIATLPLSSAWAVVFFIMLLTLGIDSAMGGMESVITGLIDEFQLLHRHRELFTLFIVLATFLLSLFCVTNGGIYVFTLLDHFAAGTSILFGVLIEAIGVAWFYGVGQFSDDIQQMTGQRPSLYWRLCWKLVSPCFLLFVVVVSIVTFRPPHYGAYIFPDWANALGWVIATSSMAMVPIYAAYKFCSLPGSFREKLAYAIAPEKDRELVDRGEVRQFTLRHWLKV

female rhesus monkeys = assay: Cocaine and candy self-administration choice in female rhesus monkeys; format: in vivo; conditions: representative female monkey; either dose of cocaine available (FIG. 5)
Excerpt: FIG. 5 is a bar graph depicting cocaine and candy self-administration in female rhesus monkeys. The data is presented as a function of cocaine dose available.
A non-human primate model of intravenous cocaine self-administration will be used to determine if vaccination with Ad-cocaine decreases drug taking, which will likely provide the best predictor of clinical efficacy. To control for nonselective effects, monkeys will be trained to self-administer cocaine and candy, using a choice procedure. If the vaccine is effective at blocking the effects of cocaine, monkeys should decrease the number of cocaine choices self-administered and correspondingly increase the number of candy choices. A non-specific effect would be evidenced by a decrease in both cocaine and candy choices. After all monkeys have been trained to enter the primate chair and respond on the levers for candy, they will have vascular access port surgery (VAP). For self-administration sessions, monkeys will be placed into custom-built primate chairs, moved to the workstation, and connected to the infusion apparatus. Sessions will be conducted five days per week. Monkeys will initially be trained to self-administer 0.1 mg/kg cocaine per infusion. Once responding is stable, the cocaine dose available will be 0.05 mg/kg/infusion. […]

[2] = biological target: T2, dopamine transporters (DAT) (Homo sapiens, UniProt Q01959); conditions: human cocaine abusers; cited from earlier work
T2 construct: In human cocaine abusers, at least 47% of the DAT needs to be occupied; host or cells: human brain, in vivo
T2 sequence (Q01959 whole entry): as the sequence (Q7JHP9 1-620) above, with M24V, V137I, S194P, G198S, N200D, G201S, P202S counted along it

[3] = Stability of cocaine hapten

| Structure (SMILES) | occupancy of the DAT ([1]; 0.1 mg/kg cocaine) [%] | occupancy of the DAT ([1]; 1.0 mg/kg cocaine) [%] | choice between i.v. cocaine and candy (female rhesus monkeys) | DAT occupancy needed to perceive the subjective effects of cocaine [2] | stability relative to GNC [3] |
| --- | --- | --- | --- | --- | --- |
| COC(=O)[C@@H]1C2CCC(C[C@@H]1OC(=O)c1ccccc1)N2C (some centres unmarked) [cocaine] | 53 | 87 | exclusively chose cocaine over candy | at least 47% | – |
| CN1C2CCC1[C@@H](C(=O)NCCCCCC(=O)O)[C@@H](OC(=O)c1ccccc1)C2 (some centres unmarked) [GNE] | – | – | – | – | more stable than GNC |
